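Five concentrations, 48 hours, 96-well plates. TGI is the concentration that stops growth completely.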
Tests used:
Assay in all cases: DTP human tumour cell line panel, 48 h
A549 NSCLC = test system: A549 NSCLC
SK-OV-3 ovarian = test system: SK-OV-3 ovarian
HCT-15 colon = test system: HCT-15 colon
RPMI-8226 leukemia = test system: RPMI-8226 leukemia
OVCAR-5 ovarian = test system: OVCAR-5 ovarian
SNB-19 CNS = test system: SNB-19 CNS
SF-539 CNS = test system: SF-539 CNS
SN12C renal = test system: SN12C renal
HOP-92 NSCLC = test system: HOP-92 NSCLC
SF-295 CNS = test system: SF-295 CNS
OVCAR-8 ovarian = test system: OVCAR-8 ovarian
NCI-H226 lung = test system: NCI-H226 lung
M19-MEL melanoma = test system: M19-MEL melanoma
SK-MEL-2 melanoma = test system: SK-MEL-2 melanoma
CAKI-1 renal = test system: CAKI-1 renal
MALME-3M melanoma = test system: MALME-3M melanoma
HCT-116 colon = test system: HCT-116 colon
ACHN renal = test system: ACHN renal
TK-10 renal = test system: TK-10 renal
HL-60(TB) leukemia = test system: HL-60(TB) leukemia

Cc1cc2n([O-])cccc-2[n+](=O)c1
TGI (A549 NSCLC): > 100 µM | TGI (SK-OV-3 ovarian): > 100 µM | TGI (HCT-15 colon): > 100 µM | TGI (RPMI-8226 leukemia): > 100 µM | TGI (OVCAR-5 ovarian): > 100 µM | TGI (SNB-19 CNS): > 100 µM | TGI (SF-539 CNS): > 100 µM | TGI (SN12C renal): > 100 µM | TGI (HOP-92 NSCLC): > 100 µM | TGI (SF-295 CNS): > 100 µM | TGI (OVCAR-8 ovarian): > 100 µM | TGI (NCI-H226 lung): > 100 µM | TGI (M19-MEL melanoma): > 100 µM | TGI (SK-MEL-2 melanoma): > 100 µM | TGI (CAKI-1 renal): > 100 µM | TGI (MALME-3M melanoma): > 100 µM | TGI (HCT-116 colon): > 100 µM | TGI (ACHN renal): > 100 µM | TGI (TK-10 renal): > 100 µM | TGI (HL-60(TB) leukemia): > 100 µM

COc1ccc(-c2c3ccccc3c(-c3ccc(OCCCCCBr)cc3)c3ccccc23)cc1
TGI (A549 NSCLC): > 100 µM | TGI (SK-OV-3 ovarian): > 100 µM | TGI (HCT-15 colon): > 100 µM | TGI (RPMI-8226 leukemia): > 100 µM | TGI (OVCAR-5 ovarian): > 100 µM | TGI (SNB-19 CNS): > 100 µM | TGI (SF-539 CNS): > 100 µM | TGI (SN12C renal): > 100 µM | TGI (HOP-92 NSCLC): > 100 µM | TGI (SF-295 CNS): > 100 µM | TGI (OVCAR-8 ovarian): > 100 µM | TGI (NCI-H226 lung): > 100 µM | TGI (M19-MEL melanoma): > 100 µM | TGI (SK-MEL-2 melanoma): > 100 µM | TGI (CAKI-1 renal): > 100 µM | TGI (MALME-3M melanoma): > 100 µM | TGI (HCT-116 colon): > 100 µM | TGI (ACHN renal): > 100 µM | TGI (TK-10 renal): > 100 µM | TGI (HL-60(TB) leukemia): > 100 µM

COc1cc2cc(C(=O)N3CC(CCl)c4c3cc([N+](C)(C)Cc3ccc([N+](=O)[O-])n3C)c3ccccc43)[nH]c2c(OC)c1OC (configuration not stated)
TGI (A549 NSCLC): 1.06 µM | TGI (SK-OV-3 ovarian): > 100 µM | TGI (RPMI-8226 leukemia): 8.31 µM | TGI (OVCAR-5 ovarian): > 100 µM | TGI (SNB-19 CNS): > 100 µM | TGI (SF-539 CNS): 14.3 µM | TGI (SN12C renal): > 62.4 µM | TGI (HOP-92 NSCLC): 6.26 µM | TGI (SF-295 CNS): > 38.8 µM | TGI (OVCAR-8 ovarian): 8.78 µM | TGI (SK-MEL-2 melanoma): 1.5 µM | TGI (CAKI-1 renal): > 19.9 µM | TGI (MALME-3M melanoma): 25.6 µM | TGI (HCT-116 colon): 6.92 µM | TGI (ACHN renal): > 100 µM | TGI (TK-10 renal): 14.3 µM | TGI (HL-60(TB) leukemia): 8.16 µM
